Consider four molecules from patent US9347089B2, “Therapeutic and diagnostic strategies” (Children's Medical Center Corporation, priority 2008, dated 2016).

One data set concerns UBC mRNA. The experiment in a line: UBC mRNA level by qRT-PCR. The class given is cell-based. Particulars: miR-24 over-expression in HepG2 cells. The method, then:
(§1) Total RNA was isolated using Trizol (Invitrogen) and reverse transcribed using random hexamers and superscript II reverse transcriptase (Invitrogen). qRT-PCR was performed in triplicate samples using the SYBR Green master mix (Applied Biosystems) and the BioRad iCycler. Primers are provided in Supplemental Table 1. Results were normalized to GAPDH. miRNA quantitative PCR was done in triplicate using the TaqMan MicroRNA Assay from Applied Biosystems as per the manufacturer's instructions and normalized to U6 SnRNA.
(§2) HepG2 cells (2.5×10^5/well) were reverse transfected with 30 nM miRNA […] (cel-miR-67) mimics (Dharmacon) using NeoFx (Ambion) following the manufacturer's instructions. K562 cells were transfected with miRNA or control mimics (100 nM) using Amaxa nucleofection following the manufacturer's protocol. K562 cells were treated with TPA (16 nM, 2 d) and were transfected with 100 nM miR-24 ASO using lipofectamine 2000 (Invitrogen) and 36 h later these cells were exposed to indicated concentrations of bleomycin and cell viability was assessed 2 d later.
On the technique in general: Real-time PCR tracks product formation cycle by cycle.

Data set [1] relates to K562 cells. The experiment in a line: Chromosome breakage analysis after γ-irradiation. The class given is cell-based, human. Particulars: for Chromosome breaks and fragments versus control cells: 24 hr after 0.75 Gy γ-irradiation. As to the method: K562 and HepG2 cultures were exposed in duplicate wells to indicated doses of γ-irradiation and incubated at 37° C. for indicated times in 5% CO2. Cells were harvested and processed for chromosomal analysis following standard methods (S1). 50-75 Wright-stained metaphases for each condition were scored for chromosomal aberrations.

In the next data set the test system is 3′UTR of H2AX mRNA. The experiment in a line: Luciferase reporter assay with H2AX 3′UTR / MRE reporters in HepG2 cells. Type of data set: cell-based. As to the method: HepG2 cells (2.5×10^5/well) were reverse transfected in triplicate with 30 nM miR-24 mimic, miRNA-328 mimic or control miRNA mimic. Two days later, cells were transfected using Lipofectamine 2000 (Invitrogen) with psiCHECK2 (Promega) vector (0.5 μg/well) containing the 3′UTR of H2AX cloned in the multiple cloning site of Renilla luciferase or control. After 24 hr luciferase activities were measured using the Dual Luciferase Assay System (Promega) and TopCount NXT microplate reader (Perkin Elmer) per manufacturer's instructions. Data were normalized to Firefly luciferase. To test whether H2AX mRNA is directly regulated by miR-24, we cloned the two predicted MREs in the H2AX 3′ UTR into the multiple cloning site of psiCHECK2 and also the mutant versions that disrupted base-pairing between the binding sites and miR-24. HepG2 cells were cotransfected with these plasmids and miR-24 or control mimics for 48 h using Lipofectamine 2000, before we performed the luciferase assays as described above.

In data set [2] the test system is K562 cells. The experiment in a line: Cell viability assay after genotoxic drug, K562. The conditions noted are these: for Sensitivity to DNA damage (viability after bleomycin): viability 2 d later. The class given is cell-based, human. As to the method:
as §2
(§3) microRNA-transfected K562 or HepG2 cells were seeded (2×10^3 cells/100 μl) into octuplicate microtiter wells, incubated overnight, and then treated with indicated reagents or medium for 48 h. Viability was measured by CyQuant Cell Proliferation Assay Kit as per manufacturer's instructions (Molecular Probes). Results were expressed as OD520 relative to that of untreated cells.

Another data set has as its system H2AX. The experiment in a line: H2AX protein level by immunoblot (densitometry relative to H3). Type of data set: cell-based, human. (In general: Immunoblotting shows a protein as a band on a membrane.)
The next data set deals with H2AX mRNA. The experiment in a line: H2AX mRNA level by qRT-PCR. Type of data set: cell-based, human. As to the method:
(§4) HepG2 cells were grown in DMEM supplemented with 10% FCS. HL60 and K562 cells were grown in RPMI-1640 supplemented with 10% FCS. K562 cells (0.5×10^6 cells/ml) were treated with TPA (16 nM, 2 d) or Hemin (100 μM, 4 d) for differentiation into megakaryocytes or erythrocytes, respectively. To induce macrophage or granulocyte differentiation, HL60 cells (0.5×10^6 cells/ml) were treated with TPA (16 nM, 2 d) or DMSO (1.25%, 5 d), respectively. We isolated human polymorphonuclear neutrophils (PMN) from whole blood after removing mononuclear cells and platelets by Ficoll-Hypaque density gradient centrifugation. Erythrocytes were lysed by treatment with ice-cold isotonic lysis buffer (0.155 M NH4Cl, pH 7.4). The remaining PMN cells were washed with Hanks' balanced salt solution and suspended in RPMI medium containing 10% (v/v) FCS. We isolated human macrophages from peripheral blood as described in Song et al. 2003.
as §1, §2

Data set [3] relates to K562 cells. The experiment in a line: Single cell gel electrophoresis (comet) assay. The class given is cell-based, human.
The test system of another data set is CHEK1. The experiment in a line: CHEK1 protein level by immunoblot. The conditions noted are these: K562 cells. Type of data set: cell-based, human. The method, then:
K562 cells (1×10^6) were transfected with miR-24 mimics or control miRNA mimics (cel-miR-67) as above and 48 h later whole cell lysates were prepared using RIPA buffer (150 mM NaCl, 1% NP-40, 0.5% sodium deoxycholate, 0.1% SDS, 50 mM Tris, pH 8.0). Protein samples were quantified using Bradford reagent (BioRad) and resolved on 10% SDS-PAGE gels and analyzed by immunoblot probed with antibodies to H2AX (Upstate Biotech), CHEK1 (cell Signaling), histone H3 (Cell Signaling), tubulin (Sigma). All antibodies were used at a dilution of 1:1000.

Data set [4] has as its system HepG2 cells. The experiment in a line: Cell cycle analysis by propidium iodide flow cytometry. The class given is cell-based. Particulars: HepG2 cells transfected 48 hr. A general note: Flow cytometry measures light scatter and fluorescence of single cells or particles in a stream.
Data set [5] deals with HepG2 cells. The experiment in a line: Cell viability assay after genotoxic drug, HepG2. The class given is cell-based. As to the method:
as §2, §3

The test system of a further data set is miR-24. The experiment in a line: miR-24 level by qRT-PCR relative to U6. Type of data set: cell-based, human. As to the method: as §4, §1, §2
The subject of data set [6] is K562 cells. The experiment in a line: Cell proliferation by thymidine uptake. The class given is cell-based, human. The conditions noted are these: TPA-treated K562 cells, by 12 h.

Turning to “miR-24: microRNA miR-24 (SEQ ID NO: 1), transfected as synthetic mimic (Dharmacon) for over-expression (UGGCUCAGUUCAGCAGGAACAG; synthetic mimic, further chemistry not given here)”, the “Effect on UBC mRNA levels” value with UBC mRNA is “does not alter”. Also, in the data set with K562 cells [1] (0.38 Gy), the “Chromosomal instability versus control cells” value is listed as “more chromosomal instability”. The “Chromosome breaks versus control cells” value in the data set on K562 cells [1] (24 hr after 0.38 Gy) is “not significantly more breaks”. Besides, the “Chromosome breaks and fragments versus control cells” value with K562 cells [1] is “twice as many”. Besides, in the data set on 3′UTR of H2AX mRNA (H2AX 3′UTR-containing reporter), the “Reduction of luciferase activity” value is on record as “more than 2 fold”. In addition, the “Effect on luciferase activity, mutated MRE reporters” value in the data set with 3′UTR of H2AX mRNA (MREs with mutated seed region) was “little effect”. In addition, in the data set with 3′UTR of H2AX mRNA (control reporter (vector)), the “Luciferase activity from control reporters” value is “unchanged”. Moreover, the “Reduction of luciferase activity, wild-type miR-24 MRE reporters” value in the data set with 3′UTR of H2AX mRNA (either wild-type MRE inserted) was “approximately four-fold”. Moreover, in the data set with K562 cells [2], the “Effect on survival with miR-24-insensitive H2AX over-expression” value was “fully rescued” and the “Sensitivity to DNA damage (viability after bleomycin)” value is on record as “significantly hypersensitive”. The “Hypersensitivity to bleomycin with miR-24-insensitive CHEK1 expression” value with K562 cells [2] (CHEK1 cDNA lacking 3′UTR) is reported as “not rescued”. Besides, in the data set with H2AX (K562 cells transfected with mimic), the H2AX protein entry was “reduces H2AX comparably to TPA differentiation”. The “Reduction of H2AX protein expression” value in the data set on H2AX (miRNA over-expression in HepG2 cells, 48 hr) is −8 fold. In addition, the “Decrease of H2AX mRNA” value in the data set with H2AX mRNA (miRNA over-expression in HepG2 cells, 48 hr, normalized to GAPDH) is given as 2 fold. Further, the “Comet tails compared to control miRNA-transfected cells” value in the data set with K562 cells [3] (K562 cells after bleomycin treatment) is listed as 5 fold. In addition, the “Comet moment after bleomycin with H2AX rescue” value in the data set with K562 cells [3] (K562 cells co-transfected with H2AX expression plasmid lacking 3′UTR, versus miRNA control and vector) is given as “no significant increase”. For the same molecule, the Basal comet moment result in the data set on K562 cells [3] (K562 cells, no bleomycin) is on record as “not significantly changed”. Moreover, the “Repair of bleomycin-induced DNA damage by comet assay” value in the data set with K562 cells [3] (TPA-treated K562 cells) is listed as “significantly enhances repair”. Moreover, the CHEK1 protein entry in the data set on CHEK1 is given as “decrease”. For the same molecule, the G1 compartment result in the data set with HepG2 cells [4] was “increases”. Moreover, the “Effect on survival with miR-24-insensitive H2AX over-expression” value with HepG2 cells [5] (HepG2 cells) is listed as “fully rescued”. Besides, in the data set with HepG2 cells [5] (mimic-transfected HepG2 cells), the Cytotoxicity of bleomycin entry is given as “significantly enhanced cytotoxicity” and the Cytotoxicity of cisplatin result is reported as “significantly enhanced cytotoxicity”.
Regarding `C[S+](C)[O-]` [DMSO], the “Decline of H2AX mRNA, primers specific for the longer transcript” value (shortened to “Decline of H2AX mRNA, primers specific”) in the data set on H2AX mRNA (HL60 cell differentiation) is recorded as “two-fold”. Besides, the “miR-24 level during differentiation” value in the data set with miR-24 (HL60 cells) is listed as “increases”.
With hemin, the “Decline of H2AX mRNA, primers specific” value in the data set on H2AX mRNA (K562 cell differentiation) is reported as “two-fold”. Also, in the data set on miR-24 (K562 cells), the “miR-24 level during differentiation” value is reported as “increases”.
Consider `CCCCCCCCCCCCCC(=O)O[C@@H]1[C@@H](C)[C@@]2(O)[C@@H](C=C(CO)C[C@]3(O)C(=O)C(C)=C[C@@H]23)[C@@H]2C(C)(C)[C@]12OC(C)=O` [TPA, 12-O-tetradecanoylphorbol-13-acetate], for which the “Chromosome breaks and fragments versus control cells” value with K562 cells [1] is “significantly more sensitive”. In addition, the “Sensitivity to DNA damage (viability after bleomycin)” value with K562 cells [2] is listed as “significantly hypersensitive”. Moreover, the results for the “Drop of H2AX protein level” value in the data set with H2AX (HL60 cells after TPA induction) and in the data set with H2AX (K562 cells after TPA induction) were 4 fold and 14 fold, respectively. For the same molecule, the “Decline of H2AX mRNA, primers specific” value in the data set with H2AX mRNA (HL60 cell differentiation) and in the data set with H2AX mRNA (K562 cell differentiation) was “two-fold” in each case. Also, the “miR-24 level during differentiation” value in the data set with miR-24 (HL60 cells) and in the data set on miR-24 (K562 cells) was “increases” in each case. Besides, the Thymidine incorporation entry in the data set with K562 cells [6] is on record as “no thymidine incorporation”.
